This is an account of results in article PMC10318527, “Utilization of dietary mixed-linkage β-glucans by the Firmicute Blautia producta” (The Journal of Biological Chemistry, 2023).

For one assay, the system named is BPGH16 mutant E384A. Description: Kinetics of BPGH16 mutant E384A (DNS assay). Format: biochemical, Blautia producta ATCC 27340. How it is done:
The residues R331, L358, E379, D381, E384, W362, and H398 of BpGH16MLG were mutated to Ala by the Q5Site-Directed Mutagenesis Kit (New England Biolabs, UK, catalogue no. E0554S). Wild-type plasmid BpGH16-pET28a(+) was used as a template, and mutagenic forward and reverse primers were developed using NEBaseChanger with subtle modifications (Table S4). A 25 μl PCR cocktail was prepared for mutating each residue. The final concentration of Q5 Hot Start High-Fidelity 2X Master Mix was 1X, each primer was at 0.5 μM, the amount of used template was 20 ng, and the rest of the volume was made up of nuclease-free water. PCR was executed using the following conditions-initial denaturation was performed at 98 °C for 1 min, for each cycle-denaturation, annealing, and extension (72 °C) were set for 10 s, 20 s, and 7 min, respectively. […] The mutant protein was then expressed as per the protocol mentioned earlier, and kinetics were performed with barley β-glucan.
Reactions were performed in 100 μl volume mixture using recombinant enzyme (final concentration at 0.1 mg/ml) in 50 mM sodium phosphate buffer (pH 5.7) at 37 °C for 1 h of incubation. […] Enzymatic assays were determined with 3,5- dinitrosalicylic acid (DNS) assay ([85]). […] Consequently, recorded the developed color spectrophotometrically at 575 nm ([85]). […]

The next assay has as its system proteome of B. producta. Briefly: Proteomics of B. producta grown on barley β-glucan versus glucose. Particulars: barley β-glucan compared to glucose. Format: cell-based, Blautia producta ATCC 27340. How it is done: B. producta ATCC 27340 was anaerobically grown at 37 °C overnight, cells were collected by centrifugation (3000g at room temperature, RT) and washed thrice with 5 ml PBS. […] The strain was grown to the mid-late exponential phase ([…] ∼ 0.5-0.6) in two biological replicates. […] The lysate was centrifuged (15,000g, 15 min at 4 °C), and the supernatant was collected. Procedures for the precipitation of protein, trypsin digestion, and analysis of generated peptides have been mentioned in the Supplementary file. […] Protein quantities were then calculated using Bradford assay. […] Consequently, trypsin digestion of protein was attained by incubating the reaction at 37°C for 16 h using 5 μg trypsin (MS grade, Promega). The next day, the reaction was quenched by adding one volume of 2% (w/v) trifluoroacetic acid, and the obtained peptides were used for mass spectrometry. Analysis of peptides was carried out as reported by Singh et al. (83). Using the manufacturer's protocol, peptides from each replicate of B. producta ATCC 27340 were initially cleaned-up using Oasis HLB 1 cc Vac cartridges (Waters). The […] analysis of each sample was performed on a quadrupole-TOF hybrid mass spectrometer (TripleTOF 6600, SCIEX) coupled to an Eksigent Nano LC-425 system. […] method was created using 93 precursor isolation windows which were defined on the basis of precursor m/z frequencies in DDA run using the SWATH Variable Window Calculator (SCIEX), with a limitation window of 5 m/z. Analysis parameters were optimized before any sample was run. Nebulizer gas and curtain gas were maintained at 20 and 25 psi, respectively.

The subject of another assay is R. faecis. Briefly: Growth of R. faecis on barley β-glucan. It counts as cell-based, Roseburia faecis. The settings on record: minimal medium with 1% barley β-glucan, no BpGH16MLG. How it is done: […] JCM 31261, B. pseudocatenulatum JCM 1200^T, B. adolescentis JCM 1275^T, B. coccoides JCM 1395^T, B. bifidum JCM 1254, and A. caccae JCM 13470^T were used for bacterial mono-culture experiments. […] About 5 μl glycerol stock was initially inoculated to 5 ml of GAM for the primary culture of these strains. […] The experiment was set up on 300 μl flat-bottomed 96-well microtiter plates. Reading was taken every interval of 8 h at 600 nm on a spectrophotometer.

The subject of the next assay is BpGH16MLG. Briefly: Initial screening of BpGH16MLG against substrates (TLC). Particulars: pH 5.7, 37 °C, 2 h. Format: biochemical, Blautia producta ATCC 27340. How it is done:
After the appropriate incubation time, the reaction was terminated by boiling (5 min), and generated oligosaccharides were analyzed by thin layer chromatography (TLC). Typically, 1 μl of the reaction mixture was used for TLC analysis. TLC analysis was performed on Silica Gel 60 F254 (Merck), and produced sugars were visualized by spraying TLC with 5% H2SO4 in ethanol, followed by heating.

As for Barley β-glucan, in the assay on BPGH16 mutant E384A, the kcat (as a rule, the maximal rate divided by the concentration of active sites) is 0 s⁻¹. Besides, in the assay with proteome of B. producta, the “abundance of Bp1313” value was “approximately 5 fold”, the “abundance of Bp1314” value is around 16 fold, the “expression of Bp1317” value was “about 7 fold” and the “expression of Bp1318” value is listed as “about 7 fold”. In the assay on proteome of B. producta, the “up-regulation of Bp3738 (GH18)” value was found to be 5.1 fold, the “up-regulation of Bp4420 (GH3)” value was found to be 3.4 fold and the “up-regulation of Bp8539 (GH3)” value is recorded as 12.4 fold. Further, in the assay with R. faecis, the “growth of R. faecis” value was “could not grow”. Also, the “activity of BpGH16MLG on substrate (initial screening)” value in the assay on BpGH16MLG is “did cleave”.
